Measured values reported in ChEMBL document CHEMBL3865798, “Engineering another class of anti-tubercular lead: Hit to lead optimization of an intriguing class of gyrase ATPase inhibitors” (Eur J Med Chem, 2016).
pIC50: −log10 of the molar value. In brackets after ≈: the same amount, converted by molar mass.

How the values were obtained:
[1] = molecular target: DNA gyrase subunit B (Mycobacterium smegmatis (strain ATCC 700084 / mc(2)155)) (UniProt A0QNE0); assay: Binding affinity to Mycobacterium smegmatis 155 6His-tagged DNA gyrase B catalytic domain expressed in Escherichia coli BL21 (DE3) pLysS cells assessed as change in melting temperature by SYPRO orange dye based differential scanning fluorimetric analysis; conditions: Mycolicibacterium smegmatis MC2 155
[2] = Growth inhibition of mouse RAW264.7 cells at 100 uM after 48 hrs by MTT assay; format: cell-based; conditions: read-out: GI
[3] = AUC (0 to t) in Wistar rat at 1 mg/kg, iv administered as single dose; format: ADME, organism-based; conditions: in vivo
[4] = AUC (0 to infinity) in Wistar rat at 1 mg/kg, iv administered as single dose; format: ADME, organism-based; parameters: dose 1 mg/kg, route intravenous, time infinity; conditions: in vivo
[5] = Apparent elimination half life in Wistar rat at 1 mg/kg, iv administered as single dose; format: ADME, organism-based; conditions: in vivo, read-out: betat1/2(app) (converted)
[6] = Total clearance in Wistar rat at 1 mg/kg, iv administered as single dose; format: ADME, organism-based; conditions: in vivo
[7] = Volume of distribution in Wistar rat at 1 mg/kg, iv administered as single dose; format: ADME, organism-based; conditions: in vivo
[8] = AUC (0 to t) in Wistar rat at 20 mg/kg, po administered as single dose; format: ADME, organism-based; conditions: in vivo
[9] = AUC (0 to infinity) in Wistar rat at 20 mg/kg, po administered as single dose; format: ADME, organism-based; parameters: dose 20 mg/kg, time infinity, route oral; conditions: in vivo
[10] = Cmax in Wistar rat at 20 mg/kg, po administered as single dose; format: ADME, organism-based; parameters: dose 20 mg/kg, route oral; conditions: in vivo
[11] = Tmax in Wistar rat at 20 mg/kg, po administered as single dose; format: ADME, organism-based; conditions: in vivo
[12] = Oral bioavailability in Wistar rat at 20 mg/kg administered as single dose; format: ADME, organism-based; conditions: in vivo
[13] = Time at which plasma concentration stays above in vitro Mycobacterium DNA gyrase IC50 in Wistar rat at 20 mg/kg, po; format: ADME, organism-based; conditions: in vivo
[14] = Protein binding in rat plasma at 100 ng/ml by HPLC analysis; format: ADME, cell-free; conditions: read-out: PPB (converted)
[15] = Protein binding in rat plasma at 2500 ng/ml by HPLC analysis; format: ADME, cell-free; conditions: read-out: PPB (converted)
[16] = Protein binding in rat plasma at 5000 ng/ml by HPLC analysis; format: ADME, cell-free; conditions: read-out: PPB (converted)
[17] = Protein binding in human plasma at 100 ng/ml by HPLC analysis; format: ADME, cell-free; conditions: read-out: PPB (converted)
[18] = Protein binding in human plasma at 2500 ng/ml by HPLC analysis; format: ADME, cell-free; conditions: read-out: PPB (converted)
[19] = Protein binding in human plasma at 5000 ng/ml by HPLC analysis; format: ADME, cell-free; conditions: read-out: PPB (converted)
[20] = Protein binding in human plasma by HPLC analysis; format: ADME, cell-free
[21] = Protein binding in rat plasma by HPLC analysis; format: ADME, cell-free
[22] = molecular target: DNA gyrase subunit B (Mycobacterium smegmatis (strain ATCC 700084 / mc(2)155), UniProt A0QNE0)
Description: Inhibition of Mycobacterium smegmatis 155 6His-tagged DNA gyrase B catalytic domain ATPase activity expressed in Escherichia coli BL21 (DE3) pLysS cells assessed as inorganic phosphate release after 120 mins in presence of ATP by malachite green dye based assay

[23] = test system: Mycobacterium tuberculosis; assay: microbe, parasite or virus in culture; conditions: H37Rv, 168 h
Description: Antimycobacterial activity against Mycobacterium tuberculosis H37Rv after 7 days by microplate alamar blue assay

Chain of DNA gyrase subunit B (Mycobacterium smegmatis (strain ATCC 700084 / mc(2)155), UniProt A0QNE0) (A0QNE0 whole entry): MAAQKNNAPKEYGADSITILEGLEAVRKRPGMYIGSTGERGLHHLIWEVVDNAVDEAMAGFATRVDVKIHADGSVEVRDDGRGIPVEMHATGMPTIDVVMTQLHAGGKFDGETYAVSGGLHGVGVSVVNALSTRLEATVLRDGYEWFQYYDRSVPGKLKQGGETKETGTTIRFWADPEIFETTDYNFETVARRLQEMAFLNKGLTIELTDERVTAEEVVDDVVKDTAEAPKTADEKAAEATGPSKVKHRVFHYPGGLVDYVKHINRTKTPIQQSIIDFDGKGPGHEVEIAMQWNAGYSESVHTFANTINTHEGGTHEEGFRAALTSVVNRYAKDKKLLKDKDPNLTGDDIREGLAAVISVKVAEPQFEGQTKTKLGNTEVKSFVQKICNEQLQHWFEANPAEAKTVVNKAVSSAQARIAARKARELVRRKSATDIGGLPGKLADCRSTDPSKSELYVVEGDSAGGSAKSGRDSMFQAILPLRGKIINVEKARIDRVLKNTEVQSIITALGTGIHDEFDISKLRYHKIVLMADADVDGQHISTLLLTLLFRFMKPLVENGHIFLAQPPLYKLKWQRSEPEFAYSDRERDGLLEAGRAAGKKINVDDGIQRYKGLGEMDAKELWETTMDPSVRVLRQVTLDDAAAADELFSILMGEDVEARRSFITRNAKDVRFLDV
Chain of DNA gyrase subunit B (Mycobacterium smegmatis (strain ATCC 700084 / mc(2)155)) (A0QNE0 2-675 limits assumed): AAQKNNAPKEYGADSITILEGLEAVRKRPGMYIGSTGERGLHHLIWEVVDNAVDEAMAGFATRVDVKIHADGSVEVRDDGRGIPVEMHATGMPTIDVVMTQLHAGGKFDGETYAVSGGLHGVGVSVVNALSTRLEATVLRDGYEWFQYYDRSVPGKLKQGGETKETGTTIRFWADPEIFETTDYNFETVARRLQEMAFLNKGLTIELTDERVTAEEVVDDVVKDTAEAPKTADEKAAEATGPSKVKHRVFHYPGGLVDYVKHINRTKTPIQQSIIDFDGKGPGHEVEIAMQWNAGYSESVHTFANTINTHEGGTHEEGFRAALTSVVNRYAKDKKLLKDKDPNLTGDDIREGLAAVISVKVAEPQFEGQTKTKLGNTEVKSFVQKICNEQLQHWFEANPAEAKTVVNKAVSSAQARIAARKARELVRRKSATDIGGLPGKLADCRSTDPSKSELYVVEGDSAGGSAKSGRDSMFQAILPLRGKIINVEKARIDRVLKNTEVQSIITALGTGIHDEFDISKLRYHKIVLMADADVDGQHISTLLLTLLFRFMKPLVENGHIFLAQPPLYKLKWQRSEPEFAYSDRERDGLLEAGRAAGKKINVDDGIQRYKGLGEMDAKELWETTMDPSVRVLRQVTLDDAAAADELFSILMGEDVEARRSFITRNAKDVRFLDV

SMILES	inhibition at 48 h, 100 µM [2] [%]	pIC50 [22]	MIC [23] [µM]	further results
Fc1ccc(NC(=S)N2CCN(c3ccnc4cc(Cl)ccc34)CC2)cc1	23.9	5.60	7.8 (≈ 3.13 µg/mL)	ΔTm [1]: 4.1 °C; AUC(0-t) [3]: 1240 ng·h/mL; AUC(0-inf) [4]: 1350 ng·h/mL; half-life [5]: 2.04 h; clearance [6]: 13.3 mL/min/kg; Vd [7]: 0.99 L/kg; AUC(0-t) [8]: 18800 ng·h/mL; AUC(0-inf) [9]: 19300 ng·h/mL; Cmax [10]: 2910 ng/mL; Tmax [11]: 2.2 h; bioavailability [12]: 71.2%; Time [13]: > 6 h; fraction unbound at 100 ng/ml [14]: 0.065; fraction unbound at 2500 ng/ml [15]: 0.052; fraction unbound at 5000 ng/ml [16]: 0.046; fraction unbound at 100 ng/ml [17]: 0.078; fraction unbound at 2500 ng/ml [18]: 0.064; fraction unbound at 5000 ng/ml [19]: 0.057; PPB [20]: Dose-dependent effect; PPB [21]: Dose-dependent effect
O=C(CN1CCN(c2ccnc3cc(Cl)ccc23)CC1)NCCc1ccccn1	26.3	4.52	61 (≈ 25 µg/mL)	–
O=C(CN1CCN(c2ccnc3cc(Cl)ccc23)CC1)Nc1ncc([N+](=O)[O-])s1	11.3	4.84	31.2 (≈ 13.5 µg/mL)	–
O=C(CN1CCN(c2ccnc3cc(Cl)ccc23)CC1)Nc1cc(C(F)(F)F)ccc1Cl	24.7	4.50	24.2 (≈ 11.7 µg/mL)	–
O=C(Nc1ccccc1)N1CCN(c2ccnc3cc(Cl)ccc23)CC1	30.9	5.12	17 (≈ 6.25 µg/mL)	–
CCNC(=O)N1CCN(c2ccnc3cc(Cl)ccc23)CC1	27	4.34	157 (≈ 50 µg/mL)	–
O=C(CN1CCN(c2ccnc3cc(Cl)ccc23)CC1)NCc1cccs1	33.4	4.83	31.2 (≈ 12.5 µg/mL)	–
Clc1ccc2c(N3CCN(Cc4nc5ccccc5[nH]4)CC3)ccnc2c1	34.8	4.49	27.3 (≈ 10.3 µg/mL)	–
COc1ccc(NC(=S)N2CCN(c3ccnc4cc(Cl)ccc34)CC2)cc1	23.1	4.96	30.3 (≈ 12.5 µg/mL)	–
COc1ccc(NC(=O)N2CCN(c3ccnc4cc(Cl)ccc34)CC2)cc1	25.3	4.68	31.5 (≈ 12.5 µg/mL)	–
O=C(CN1CCN(c2ccnc3cc(Cl)ccc23)CC1)NCc1ccco1	21.1	4.79	32.5 (≈ 12.5 µg/mL)	–
CC(=O)c1ccc(NC(=O)CN2CCN(c3ccnc4cc(Cl)ccc34)CC2)cc1	29.5	5.12	14.5 (≈ 6.13 µg/mL)	–
S=C(Nc1ccc(Cl)cc1)N1CCN(c2ccnc3cc(Cl)ccc23)CC1	34.2	4.97	30 (≈ 12.5 µg/mL)	–
CC(C)NC(=O)N1CCN(c2ccnc3cc(Cl)ccc23)CC1	34.4	4.36	155 (≈ 51.6 µg/mL)	–
O=C(c1cc2cc(Cl)ccc2[nH]1)N1CCN(c2ccnc3cc(Cl)ccc23)CC1	29.8	4.99	14.7 (≈ 6.25 µg/mL)	–
Clc1ccc2c(N3CCN(Cc4ccc[nH]4)CC3)ccnc2c1	12.6	4.77	76.5 (≈ 25 µg/mL)	–
O=[N+]([O-])c1ccc(N2CCN(c3ccnc4cc(Cl)ccc34)CC2)c2nonc12	37.2	4.99	7.26 (≈ 2.98 µg/mL)	–
O=C(CN1CCN(c2ccnc3cc(C(F)(F)F)ccc23)CC1)NCc1ccccn1	51.2	< 4.12	116 (≈ 50 µg/mL)	–
CC(=O)c1ccc(NC(=S)N2CCN(c3ccnc4cc(Cl)ccc34)CC2)cc1	27.2	4.57	58.8 (≈ 25 µg/mL)	–
O=C(Nc1ccc(F)cc1)N1CCN(c2ccnc3cc(Cl)ccc23)CC1	17.6	5.51	15.3 (≈ 5.88 µg/mL)	–
O=C(c1ccccn1)N1CCN(c2ccnc3cc(Cl)ccc23)CC1	23.6	4.96	35.4 (≈ 12.5 µg/mL)	–
O=C(CN1CCN(c2ccnc3cc(Cl)ccc23)CC1)NCc1ccccc1	15.3	4.62	63.3 (≈ 25 µg/mL)	–
Cc1ccc(NC(=S)N2CCN(c3ccnc4cc(Cl)ccc34)CC2)cc1	15.8	4.86	63 (≈ 25 µg/mL)	–
S=C(NCc1ccccc1)N1CCN(c2ccnc3cc(Cl)ccc23)CC1	19.8	5.26	15.8 (≈ 6.25 µg/mL)	–
CC(C)NC(=S)N1CCN(c2ccnc3cc(Cl)ccc23)CC1	36.3	4.39	71.6 (≈ 25 µg/mL)	–
O=C(c1ccc[nH]1)N1CCN(c2ccnc3cc(Cl)ccc23)CC1	34.2	4.85	18.3 (≈ 6.25 µg/mL)	–
O=C(CN1CCN(c2ccnc3ccccc23)CC1)NCc1ccccn1	23.5	< 4.12	138 (≈ 50 µg/mL)	–
